# Experimental data reported in patent US20220090217A1, “BIOMARKERS AND USES THEREOF IN THE TREATMENT OF CHRONIC HBV INFECTION” (Janssen Sciences Ireland Unlimited Company, priority 2020, published 2022).
# Test system: chronic hepatitis B (CHB) patients
# Assay: Onset of clinical relapse after stop of NA treatment (Cox proportional hazard regression)
# Format: in vivo, human
# Conditions: entecavir compared to tenofovir; among the 110 clinical relapsers
# Description: Patients and Study Design: In this multi-center prospective study in Taiwan, 242 CHB patients were enrolled while in their last half year of a minimum 3-year treatment regimen with direct antivirals. Of them, 47 were excluded due to protocol violation, screening failure, lost to follow-up, withdrawal by the subject, use of immune related therapy, or on-treatment clinical relapse. An additional 14 were excluded as the analysis required patients to be hepatitis B e-antigen (HBeAg) negative, hepatitis virus (HBV) DNA <60 IU/mL, and alanine transaminase (ALT) <80 U/L at the last on-treatment visit, leaving […] patients eligible for analysis. […] Cumulative incidence of virological and clinical relapse after stop of treatment was assessed by Kaplan-Meier curves (FIGS. 1A and 1B). […] Statistical Analysis of HLA Data: The association between the HLA alleles (at two and four digits resolution for each locus) and diversity (genetic homozygosity and HED score, independently) and onset of relapse was assessed using a Cox model (Harrell et al., JAMA: The Journal of the American Medical Association, 1982, 247: 2543) including HBsAg level at the last visit on treatment (high (≥100 IU/mL) vs. low (<100 IU/mL)) and the antiviral treatment at enrolment (tenofovir vs. entecavir) as main effects. […]
smiles,measurement,value
C=C1[C@H](CO)[C@@H](O)C[C@@H]1n1cnc2c(=O)[nH]c(N)nc21 [entecavir],"onset of clinical relapse later after stopping treatment, on average",100 days
